Measured values: patent publication US8802597B2, “Herbicidal pyrimidines” (E I du Pont de Nemours and Company, priority 2003, dated 2014)
Read-outs that look alike come from different tables or passages of the source.

Experiments:
Test in all cases: Test C pre/postemergence
Type in all cases: in vivo
[1] = system: yellow nutsedge (Cyperus esculentus); conditions: Cyperus; for pest or weed control at 62 g/ha: 62 g ai/ha; for pest or weed control at 125 g/ha: 125 g ai/ha; for pest or weed control at 250 g/ha: 250 g ai/ha; for pest or weed control at 500 g/ha: 500 g ai/ha
Summary of the method: (§1)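 Visual injury ratings, 0 (no effect) to 100 (complete control), made 12 to 14 days after treatment by comparison with untreated controls. Greenhouse plants received test chemical in a surfactant-containing non-phytotoxic solvent, either preemergence on planted seeds or postemergence at the 1- to 4-leaf stage.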

[2] = system: morningglory (Ipomoea coccinea); conditions: Ipomoea; for pest or weed control at 62 g/ha: 62 g ai/ha; for pest or weed control at 125 g/ha: 125 g ai/ha; for pest or weed control at 250 g/ha: 250 g ai/ha; for pest or weed control at 500 g/ha: 500 g ai/ha
Summary of the method: as §1

[3] = system: cocklebur (Xanthium strumarium); conditions: Xanthium strumarium; for pest or weed control at 125 g/ha: 125 g ai/ha; for pest or weed control at 250 g/ha: 250 g ai/ha; for pest or weed control at 500 g/ha: 500 g ai/ha
Summary of the method: as §1

[4] = system: giant foxtail (Setaria faberii); conditions: Setaria faberi; for pest or weed control at 125 g/ha: 125 g ai/ha; for pest or weed control at 500 g/ha: 500 g ai/ha; for pest or weed control at 62 g/ha: 62 g ai/ha; for pest or weed control at 250 g/ha: 250 g ai/ha
Summary of the method: as §1

[5] = system: Surinam grass (Brachiaria decumbens); conditions: Urochloa decumbens; for pest or weed control at 125 g/ha: 125 g ai/ha; for pest or weed control at 500 g/ha: 500 g ai/ha; for pest or weed control at 62 g/ha: 62 g ai/ha; for pest or weed control at 250 g/ha: 250 g ai/ha
Summary of the method: as §1

[6] = system: crabgrass (Digitaria sanguinalis); conditions: Digitaria sanguinalis; for pest or weed control at 62 g/ha: 62 g ai/ha; for pest or weed control at 125 g/ha: 125 g ai/ha
Summary of the method: as §1

[7] = post-emergence, Postemergence, scale 0 to 100 (0 no effect, 100 complete control), read-out: Nutsedge, Yellow plant response rating
[8] = post-emergence, Postemergence, scale 0 to 100, read-out: Plant response rating, Nutsedge, Yellow
[9] = pre-emergence, Preemergence, scale 0 to 100, read-out: Plant response rating, Nutsedge, Yellow
[10] = post-emergence, Postemergence, scale 0 to 100 (0 no effect, 100 complete control), read-out: Morningglory plant response rating
[11] = post-emergence, Postemergence, scale 0 to 100, read-out: Plant response rating, Morningglory
[12] = pre-emergence, Preemergence, scale 0 to 100, read-out: Plant response rating, Morningglory
[13] = post-emergence, Postemergence, scale 0 to 100, read-out: Plant response rating, Cocklebur
[14] = pre-emergence, Preemergence, scale 0 to 100, read-out: Plant response rating, Cocklebur
[15] = post-emergence, Postemergence, scale 0 to 100 (0 no effect, 100 complete control), read-out: Foxtail, Giant plant response rating
[16] = post-emergence, Postemergence, scale 0 to 100, read-out: Plant response rating, Foxtail, Giant
[17] = pre-emergence, Preemergence, scale 0 to 100, read-out: Plant response rating, Foxtail, Giant
[18] = post-emergence, Postemergence, scale 0 to 100 (0 no effect, 100 complete control), read-out: Surinam Grass plant response rating
[19] = post-emergence, Postemergence, scale 0 to 100, read-out: Plant response rating, Surinam Grass
[20] = pre-emergence, Preemergence, scale 0 to 100, read-out: Plant response rating, Surinam Grass
[21] = post-emergence, Postemergence, scale 0 to 100 (0 no effect, 100 complete control), read-out: Crabgrass plant response rating

`Nc1nc(C2CC2)nc(C(=O)O)c1Br` [Compound 8] was tested. Which pest or weed control at 62 g/ha [1, 7] did it give?
Its pest or weed control at 62 g/ha is 0%.

And the pest or weed control at 125 g/ha [1, 7]?
The pest or weed control at 125 g/ha was 0%.

What about the pest or weed control at 250 g/ha [1, 8] of the same compound?
The pest or weed control at 250 g/ha was 0%.

What about the pest or weed control at 500 g/ha [1, 8] of the same compound?
Its pest or weed control at 500 g/ha is 0%.

What about the pest or weed control at 62 g/ha ([1]; pre-emergence, Preemergence, scale 0 to 100, 0 no effect, 100 complete control, read-out: Plant response rating, Nutsedge, Yellow) of the same compound?
Its pest or weed control at 62 g/ha is 0%.

What about the pest or weed control at 125 g/ha [1, 9] of the same compound?
The pest or weed control at 125 g/ha was 0%.

What about the pest or weed control at 250 g/ha [1, 9] of the same compound?
The pest or weed control at 250 g/ha was 100%.

And the pest or weed control at 500 g/ha [1, 9]?
Its pest or weed control at 500 g/ha is 100%.

What about the pest or weed control at 62 g/ha [2, 10] of the same compound?
Its pest or weed control at 62 g/ha is 95%.

And the pest or weed control at 125 g/ha [2, 10]?
Its pest or weed control at 125 g/ha is 95%.

What about the pest or weed control at 250 g/ha [2, 11] of the same compound?
The pest or weed control at 250 g/ha was 100%.

What about the pest or weed control at 500 g/ha [2, 11] of the same compound?
Its pest or weed control at 500 g/ha is 100%.

And the pest or weed control at 62 g/ha ([2]; pre-emergence, Preemergence, scale 0 to 100, 0 no effect, 100 complete control, read-out: Plant response rating, Morningglory)?
Its pest or weed control at 62 g/ha is 20%.

What about the pest or weed control at 125 g/ha [2, 12] of the same compound?
The pest or weed control at 125 g/ha was 100%.

What about the pest or weed control at 250 g/ha [2, 12] of the same compound?
Its pest or weed control at 250 g/ha is 100%.

What about the pest or weed control at 500 g/ha [2, 12] of the same compound?
Its pest or weed control at 500 g/ha is 100%.

What about the pest or weed control at 62 g/ha ([3]; post-emergence, Postemergence, 62 g ai/ha, scale 0 to 100 (0 no effect, 100 complete control), read-out: Cocklebur plant response rating) of the same compound?
Its pest or weed control at 62 g/ha is 80%.

What about the pest or weed control at 125 g/ha ([3]; post-emergence, Postemergence, scale 0 to 100 (0 no effect, 100 complete control), read-out: Cocklebur plant response rating) of the same compound?
The pest or weed control at 125 g/ha was 100%.

And the pest or weed control at 250 g/ha [3, 13]?
The pest or weed control at 250 g/ha was 100%.

What about the pest or weed control at 500 g/ha [3, 13] of the same compound?
The pest or weed control at 500 g/ha was 100%.

And the pest or weed control at 125 g/ha [3, 14]?
The pest or weed control at 125 g/ha was 85%.

What about the pest or weed control at 250 g/ha [3, 14] of the same compound?
The pest or weed control at 250 g/ha was 100%.

And the pest or weed control at 500 g/ha [3, 14]?
The pest or weed control at 500 g/ha was 100%.

And the pest or weed control at 125 g/ha [4, 15]?
Its pest or weed control at 125 g/ha is 60%.

And the pest or weed control at 500 g/ha [4, 16]?
Its pest or weed control at 500 g/ha is 75%.

And the pest or weed control at 62 g/ha [4, 15]?
The pest or weed control at 62 g/ha was 40%.

And the pest or weed control at 250 g/ha [4, 16]?
The pest or weed control at 250 g/ha was 70%.

What about the pest or weed control at 62 g/ha ([4]; pre-emergence, Preemergence, scale 0 to 100, 0 no effect, 100 complete control, read-out: Plant response rating, Foxtail, Giant) of the same compound?
Its pest or weed control at 62 g/ha is 0%.

And the pest or weed control at 125 g/ha [4, 17]?
Its pest or weed control at 125 g/ha is 0%.

What about the pest or weed control at 250 g/ha [4, 17] of the same compound?
Its pest or weed control at 250 g/ha is 0%.

What about the pest or weed control at 500 g/ha [4, 17] of the same compound?
The pest or weed control at 500 g/ha was 0%.

What about the pest or weed control at 125 g/ha [5, 18] of the same compound?
Its pest or weed control at 125 g/ha is 65%.

What about the pest or weed control at 500 g/ha [5, 19] of the same compound?
Its pest or weed control at 500 g/ha is 80%.

What about the pest or weed control at 62 g/ha [5, 18] of the same compound?
Its pest or weed control at 62 g/ha is 40%.

And the pest or weed control at 250 g/ha [5, 19]?
Its pest or weed control at 250 g/ha is 70%.

And the pest or weed control at 62 g/ha ([5]; pre-emergence, Preemergence, scale 0 to 100, 0 no effect, 100 complete control, read-out: Plant response rating, Surinam Grass)?
Its pest or weed control at 62 g/ha is 0%.

What about the pest or weed control at 125 g/ha [5, 20] of the same compound?
Its pest or weed control at 125 g/ha is 100%.

What about the pest or weed control at 250 g/ha [5, 20] of the same compound?
The pest or weed control at 250 g/ha was 100%.

And the pest or weed control at 500 g/ha [5, 20]?
The pest or weed control at 500 g/ha was 100%.

And the pest or weed control at 62 g/ha [6, 21]?
Its pest or weed control at 62 g/ha is 60%.

And the pest or weed control at 125 g/ha [6, 21]?
The pest or weed control at 125 g/ha was 65%.

What about the pest or weed control at 250 g/ha ([6]; post-emergence, Postemergence, 250 g ai/ha, scale 0 to 100, read-out: Plant response rating, Crabgrass) of the same compound?
Its pest or weed control at 250 g/ha is 70%.

What about the pest or weed control at 500 g/ha ([6]; post-emergence, Postemergence, 500 g ai/ha, scale 0 to 100, read-out: Plant response rating, Crabgrass) of the same compound?
Its pest or weed control at 500 g/ha is 75%.

What about the pest or weed control at 62 g/ha ([6]; pre-emergence, Preemergence, scale 0 to 100, 0 no effect, 100 complete control, read-out: Plant response rating, Crabgrass) of the same compound?
Its pest or weed control at 62 g/ha is 0%.

What about the pest or weed control at 125 g/ha ([6]; pre-emergence, Preemergence, scale 0 to 100, read-out: Plant response rating, Crabgrass) of the same compound?
Its pest or weed control at 125 g/ha is 0%.
